ChEMBL document CHEMBL1671725, “The ABC transporter AnrAB contributes to the innate resistance of Listeria monocytogenes to nisin, bacitracin, and various beta-lactam antibiotics” (2010)
Converted amounts (≈) assume the structure as drawn. Bridge positions count the residues as written; N and C are the ends. Square brackets hold non-standard residues; d marks the D form. Peptide text beside a SMILES is read from it. * marks the point of attachment. Ileψ(thiazoline)Cys = CC[C@H](C)[C@H](N)C1=N[C@H](C(=O)*)CS1; dOrn = NCCC[C@@H](N)C(=O)O

Legend:
Assay type in all cases: functional
Listeria monocytogenes [1] = assay: Antimicrobial activity against anrB-deficient Listeria monocytogenes EGD-e at 30 ug after 16 hrs by disk diffusion assay; settings: read-out: IZ
Listeria monocytogenes [2] = assay: Antimicrobial activity against Listeria monocytogenes EGD-e at 30 ug after 16 hrs by disk diffusion assay; settings: read-out: IZ
Listeria monocytogenes [3] = assay: Antimicrobial activity against anrB-deficient Listeria monocytogenes EGD-e assessed as growth inhibition after 16 hrs by broth dilution method relative to wild type
Listeria monocytogenes [4] = assay: Antimicrobial activity against Listeria monocytogenes EGD-e assessed as growth inhibition after 16 hrs by broth dilution method
Listeria monocytogenes [5] = assay: Antimicrobial activity against anrB-deficient Listeria monocytogenes EGD-e assessed as growth inhibition after 16 hrs by broth dilution method
Listeria monocytogenes [6] = assay: Antimicrobial activity against anrB-deficient Listeria monocytogenes EGD-e at 1 ug after 16 hrs by disk diffusion assay; settings: read-out: IZ
Listeria monocytogenes [7] = assay: Antimicrobial activity against Listeria monocytogenes EGD-e at 1 ug after 16 hrs by disk diffusion assay; settings: read-out: IZ
Listeria monocytogenes [8] = assay: Antimicrobial activity against virR-deficient Listeria monocytogenes EGD-e assessed as growth inhibition after 16 hrs by broth dilution method relative to wild type
Listeria monocytogenes [9] = assay: Antimicrobial activity against mprF-deficient Listeria monocytogenes EGD-e assessed as growth inhibition after 16 hrs by broth dilution method relative to wild type
Listeria monocytogenes [10] = assay: Antimicrobial activity against telA-deficient Listeria monocytogenes EGD-e assessed as growth inhibition after 16 hrs by broth dilution method relative to wild type
Listeria monocytogenes [11] = assay: Antimicrobial activity against lisK-deficient Listeria monocytogenes EGD-e assessed as growth inhibition after 16 hrs by broth dilution method relative to wild type
Listeria monocytogenes [12] = assay: Antimicrobial activity against anrB-deficient Listeria monocytogenes EGD-e at 5 ug after 16 hrs by disk diffusion assay; settings: read-out: IZ
Listeria monocytogenes [13] = assay: Antimicrobial activity against Listeria monocytogenes EGD-e at 5 ug after 16 hrs by disk diffusion assay; settings: read-out: IZ
Listeria monocytogenes [14] = assay: Antimicrobial activity against anrB-deficient Listeria monocytogenes EGD-e at 10 ug after 16 hrs by disk diffusion assay; settings: read-out: IZ
Listeria monocytogenes [15] = assay: Antimicrobial activity against mprF-deficient Listeria monocytogenes EGD-e assessed as growth inhibition after 16 hrs by broth dilution method
Listeria monocytogenes [16] = assay: Antimicrobial activity against lisK-deficient Listeria monocytogenes EGD-e assessed as growth inhibition after 16 hrs by broth dilution method
Listeria monocytogenes [17] = assay: Antimicrobial activity against telA-deficient Listeria monocytogenes EGD-e assessed as growth inhibition after 16 hrs by broth dilution method
Listeria monocytogenes [18] = assay: Antimicrobial activity against virR-deficient Listeria monocytogenes EGD-e assessed as growth inhibition after 16 hrs by broth dilution method
Listeria monocytogenes [19] = assay: Antimicrobial activity against Listeria monocytogenes EGD-e at 10 ug after 16 hrs by disk diffusion assay; settings: read-out: IZ
Listeria monocytogenes [20] = assay: Antimicrobial activity against anrB-deficient Listeria monocytogenes EGD-e at 100 ug after 16 hrs by disk diffusion assay; settings: read-out: IZ
Listeria monocytogenes [21] = assay: Antimicrobial activity against Listeria monocytogenes EGD-e at 100 ug after 16 hrs by disk diffusion assay; settings: read-out: IZ

| SMILES | zone of inhibition at 30 µg/disc (Listeria monocytogenes [1]) [mm] | zone of inhibition at 30 µg/disc (Listeria monocytogenes [2]) [mm] | fold change (FC) (Listeria monocytogenes [3]) | MIC (Listeria monocytogenes [4]) [µg/mL] | MIC (Listeria monocytogenes [5]) [µg/mL] | other results |
| --- | --- | --- | --- | --- | --- | --- |
| CC(C)(O/N=C(\C(=O)N[C@@H]1C(=O)N2C(C(=O)[O-])=C(C[n+]3ccccc3)CS[C@H]12)c1csc(N)n1)C(=O)O [CEFTAZIDIME] | 7.8 | 6.1 |  |  |  |  |
| C/C=C(/NC(=O)[C@H](CCCCN)NC(=O)[C@H](C)NC(=O)[C@H]1CS[C@@H](C)[C@@H](NC(=O)[C@H]2CSC[C@@H](NC(=O)[C@H](C)NC(=O)[C@@H](N)[C@@H](C)CC)C(=O)N[C@@H](CCCCN)C(=O)N[C@@H](Cc3ccccc3)C(=O)N[C@@H](CC(C)C)C(=O)N2)C(=O)N2CCC[C@H]2C(=O)NCC(=O)N1)C(=O)NCC(=O)N[C@@H]1CSC[C@H]2NC(=O)[C@H](Cc3ccc(O)cc3)NC(=O)[C@@H](CS/C=C/NC2=O)NC(=O)[C@H](CC(N)=O)NC(=O)[C@H](Cc2ccccc2)NC1=O [GALLIDERMIN] |  |  | 4 | 2 (≈ 0.924 µM) | 0.5 (≈ 0.231 µM) |  |
| Cc1onc(-c2ccccc2)c1C(=O)N[C@@H]1C(=O)N2[C@@H]1SC(C)(C)[C@@H]2C(=O)O [OXACILLIN] |  |  |  |  |  | zone of inhibition at 1 µg/disc (Listeria monocytogenes [6]): 11.9 mm; zone of inhibition at 1 µg/disc (Listeria monocytogenes [7]): 9.6 mm |
| CC1=C(C(=O)O)N2C(=O)[C@@H](NC(=O)[C@H](N)C3=CCC=CC3)[C@H]2SC1 [CEPHRADINE] | 16.9 | 13.6 |  |  |  |  |
| C=C(NC(=O)[C@@H](NC(=O)[C@H](Cc1cnc[nH]1)NC(=O)[C@@H](NC(=O)[C@H](CO)NC(=O)[C@@H]1CS[C@@H](C)[C@H]2NC(=O)C(=C)NC(=O)[C@H](NC(=O)[C@H](CCCCN)NC(=O)[C@H](CCSC)NC(=O)[C@H](CC(N)=O)NC(=O)[C@@H]3CS[C@@H](C)[C@@H](NC(=O)[C@H](CCCNN)NC(=O)[C@@H]4CS[C@@H](C)[C@@H](NC(=O)[C@@H]5CSC[C@@H](NC(=O)/C(=C\C)NC(=O)[C@@H](N)[C@@H](C)CC)C(=O)N[C@@H]([C@@H](C)CC)C(=O)NC(=C)C(=O)N[C@@H]([C@@H](C)CC)C(=O)N5)C(=O)N5CCC[C@H]5C(=O)NCC(=O)N4)C(=O)NCC(=O)N[C@@H](C)C(=O)N[C@@H]([C@@H](C)CC)C(=O)N[C@@H](CCSC)C(=O)NCC(=O)N3)[C@H](C)SC[C@H](NC2=O)C(=O)N[C@H](Cc2cnc[nH]2)C(=O)N1)[C@@H](C)CC)C(C)C)C(=O)N[C@@H](CCCCN)C(=O)O [NISIN] |  |  | 2 |  |  | Ratio (Listeria monocytogenes [8]): -32; Ratio (Listeria monocytogenes [9]): -16; Ratio (Listeria monocytogenes [10]): -2; Ratio (Listeria monocytogenes [11]): 2 |
| CC(=O)OCC1=C(C(=O)O)N2C(=O)[C@@H](NC(=O)Cc3cccs3)[C@H]2SC1 [CEPHALOTHIN] | 33.6 | 30.3 |  |  |  |  |
| CO/N=C(\C(=O)N[C@@H]1C(=O)N2C(C(=O)O)=C(COC(C)=O)CS[C@H]12)c1csc(N)n1 [CEFOTAXIME] | 22.5 | 19.6 | 2 | 2 (≈ 4.39 µM) | 1 (≈ 2.2 µM) |  |
| CC1(C)S[C@@H]2[C@H](NC(=O)Cc3ccccc3)C(=O)N2[C@H]1C(=O)O [PENICILLIN G] |  |  | 2 | 0.72 (≈ 2.15 µM) | 0.36 (≈ 1.08 µM) | zone of inhibition at 5 µg/disc (Listeria monocytogenes [12]): 34.7 mm; zone of inhibition at 5 µg/disc (Listeria monocytogenes [13]): 30.5 mm |
| CCN1CCN(C(=O)N[C@@H](C(=O)N[C@@H]2C(=O)N3C(C(=O)O)=C(CSc4nnnn4C)CS[C@H]23)c2ccc(O)cc2)C(=O)C1=O [CEFOPERAZONE] | 24 | 20.6 |  |  |  |  |
| N[C@@H](C(=O)N[C@@H]1C(=O)N2C(C(=O)O)=C(Cl)CS[C@H]12)c1ccccc1 [CEFACLOR ANHYDROUS] | 24.8 | 22.2 |  |  |  |  |
| CC[C@H](C)[C@H](N)C1=N[C@H](C(=O)N[C@@H](CC(C)C)C(=O)N[C@H](CCC(=O)O)C(=O)N[C@H](C(=O)N[C@H]2CCCCNC(=O)[C@H](CC(N)=O)NC(=O)[C@@H](CC(=O)O)NC(=O)[C@H](Cc3cnc[nH]3)NC(=O)[C@@H](Cc3ccccc3)NC(=O)[C@H]([C@@H](C)CC)NC(=O)[C@@H](CCCN)NC2=O)[C@@H](C)CC)CS1 [BACITRACIN] ({Ileψ(thiazoline)Cys}-L[dE]IK[dOrn]I[dF]H[dD]N; lactam 4-C) |  |  | 8 | 256 (≈ 180 µM) | 32 (≈ 22.5 µM) | zone of inhibition at 10 µg/disc (Listeria monocytogenes [14]): 20 mm; MIC (Listeria monocytogenes [15]): 64 µg/mL (≈ 45 µM); Ratio (Listeria monocytogenes [8]): -128; Ratio (Listeria monocytogenes [9]): -4; Ratio (Listeria monocytogenes [10]): -2; Ratio (Listeria monocytogenes [11]): -2; MIC (Listeria monocytogenes [16]): 128 µg/mL (≈ 90 µM); MIC (Listeria monocytogenes [17]): 128 µg/mL (≈ 90 µM); MIC (Listeria monocytogenes [18]): 2 µg/mL (≈ 1.41 µM); zone of inhibition at 10 µg/disc (Listeria monocytogenes [19]): 10.5 mm |
| CC1(C)S[C@@H]2[C@H](NC(=O)C(C(=O)O)c3ccccc3)C(=O)N2[C@H]1C(=O)O (stereo partly drawn) [CARBENICILLIN] |  |  |  |  |  | zone of inhibition at 100 µg/disc (Listeria monocytogenes [20]): 43 mm; zone of inhibition at 100 µg/disc (Listeria monocytogenes [21]): 36.7 mm |
| C[C@@H](O)[C@H]1C(=O)N2C(C(=O)O)=C(SCCNC=N)C[C@H]12 [IMIPENEM ANHYDROUS] | 42.3 | 39.7 |  |  |  |  |
| CC1(C)S[C@@H]2[C@H](NC(=O)[C@H](N)c3ccccc3)C(=O)N2[C@H]1C(=O)O [AMPICILLIN] |  |  | 2 | 1 (≈ 2.86 µM) | 0.5 (≈ 1.43 µM) | zone of inhibition at 10 µg/disc (Listeria monocytogenes [14]): 36.6 mm; zone of inhibition at 10 µg/disc (Listeria monocytogenes [19]): 32.8 mm |
| CO[C@@]1(NC(=O)CSCC#N)C(=O)N2C(C(=O)O)=C(CSc3nnnn3C)CS[C@@H]21 [CEFMETAZOLE] | 34.2 | 31.4 |  |  |  |  |
| CO/N=C(\C(=O)N[C@@H]1C(=O)N2C(C(=O)O)=C(COC(N)=O)CS[C@H]12)c1ccco1 [CEFUROXIME] | 24.8 | 21.3 | 2 | 2.87 (≈ 6.76 µM) | 1.44 (≈ 3.39 µM) |  |
| CCN1CCN(C(=O)N[C@@H](C(=O)N[C@@H]2C(=O)N3[C@@H]2SC(C)(C)[C@@H]3C(=O)O)c2ccccc2)C(=O)C1=O [PIPERACILLIN] | 35.3 | 30.7 |  |  |  |  |
| CC1=C(C(=O)O)N2C(=O)[C@@H](NC(=O)[C@H](N)c3ccccc3)[C@H]2SC1 [CEPHALEXIN ANHYDROUS] | 14.8 | 12.2 |  |  |  |  |
